Assay results published in PubChem BioAssay AID1845202 (Molecular Pharmacology Branch, DTP, NCI, 2023).

Tested on: DMS 114 tumor spheroids, viability % test/control
Experiment: Anticancer human tumor DMS 114 cell line growth inhibition;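 note: spheroids exposed to compounds for 7 days before read-out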;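 for viability, T/C: luminescence used as a proxy for viable cells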
Details: spheroids with HUVEC and MSC; for IC50: curve of first compound; for viability, T/C: stronger effect = lower value
Outline: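 Complex spheroids of malignant cells with endothelial cells and mesenchymal stem cells; agents alone or combined, from near clinical Cmax (or 10 microM if unknown) down in half-log steps, 0.25% DMSO final.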

[1] = second compound 1 µM, first compound 0.0316 µM
[2] = second compound 1 µM, first compound 0.1 µM
[3] = second compound 1 µM, first compound 0.316 µM
[4] = second compound 1 µM, first compound 1 µM
[5] = second compound 1 µM, first compound 3.16 µM
[6] = second compound 1 µM, first compound 10 µM
[7] = second compound 3.16 µM, first compound 0.0316 µM
[8] = second compound 3.16 µM, first compound 0.1 µM
[9] = second compound 3.16 µM, first compound 0.316 µM
[10] = second compound 3.16 µM, first compound 1 µM
[11] = second compound 3.16 µM, first compound 3.16 µM
[12] = second compound 3.16 µM, first compound 10 µM
[13] = second compound 10 µM, first compound 0.0316 µM
[14] = second compound 10 µM, first compound 0.1 µM
[15] = second compound 10 µM, first compound 0.316 µM
[16] = second compound 10 µM, first compound 1 µM
[17] = second compound 10 µM, first compound 3.16 µM
[18] = second compound 10 µM, first compound 10 µM
[19] = second compound 31.6 µM, first compound 0.0316 µM
[20] = second compound 31.6 µM, first compound 0.1 µM
[21] = second compound 31.6 µM, first compound 0.316 µM
[22] = second compound 31.6 µM, first compound 1 µM
[23] = second compound 31.6 µM, first compound 3.16 µM
[24] = second compound 31.6 µM, first compound 10 µM
[25] = second compound 100 µM, first compound 0.0316 µM
[26] = second compound 100 µM, first compound 0.1 µM
[27] = second compound 100 µM, first compound 0.316 µM
[28] = second compound 100 µM, first compound 1 µM
[29] = second compound 100 µM, first compound 3.16 µM
[30] = second compound 100 µM, first compound 10 µM

CC(C)n1c(=O)n(C)c2cnc3cc(F)c(-c4ccc(OCCCN5CCCCC5)nc4)cc3c21 + Cn1nnc2c(C(N)=O)ncn2c1=O
IC50 (second compound 1 µM): 6.43 µM | IC50 (second compound 3.16 µM): 7.31 µM | IC50 (second compound 10 µM): 6.55 µM | IC50 (second compound 31.6 µM): 6.08 µM | IC50 (second compound 100 µM): 4.32 µM | viability, T/C [1]: 95.4% | viability, T/C [2]: 100% | viability, T/C [3]: 101% | viability, T/C [4]: 98.9% | viability, T/C [5]: 75.4% | viability, T/C [6]: 34.2% | viability, T/C [7]: 104% | viability, T/C [8]: 105% | viability, T/C [9]: 104% | viability, T/C [10]: 106% | viability, T/C [11]: 94.8% | viability, T/C [12]: 32.9% | viability, T/C [13]: 103% | viability, T/C [14]: 111% | viability, T/C [15]: 105% | viability, T/C [16]: 93.5% | viability, T/C [17]: 79% | viability, T/C [18]: 33.4% | viability, T/C [19]: 99.6% | viability, T/C [20]: 96% | viability, T/C [21]: 101% | viability, T/C [22]: 95.3% | viability, T/C [23]: 71.2% | viability, T/C [24]: 33.8% | viability, T/C [25]: 85.8% | viability, T/C [26]: 81.6% | viability, T/C [27]: 82.9% | viability, T/C [28]: 84.8% | viability, T/C [29]: 58.8% | viability, T/C [30]: 26.5%

COc1ccc([C@@H](O)c2cc(-c3ncnc4cc(N5CCOCC5)ccc34)c(F)cc2Cl)nn1 + Cn1nnc2c(C(N)=O)ncn2c1=O
IC50 (second compound 1 µM): 8.43 µM | IC50 (second compound 3.16 µM): > 10 µM | IC50 (second compound 10 µM): 9.93 µM | IC50 (second compound 31.6 µM): 8.47 µM | IC50 (second compound 100 µM): 5.87 µM | viability, T/C [1]: 101% | viability, T/C [2]: 103% | viability, T/C [3]: 99.3% | viability, T/C [4]: 114% | viability, T/C [5]: 94.8% | viability, T/C [6]: 42.3% | viability, T/C [7]: 107% | viability, T/C [8]: 109% | viability, T/C [9]: 102% | viability, T/C [10]: 117% | viability, T/C [11]: 95.6% | viability, T/C [12]: 50.5% | viability, T/C [13]: 100% | viability, T/C [14]: 108% | viability, T/C [15]: 114% | viability, T/C [16]: 106% | viability, T/C [17]: 86.9% | viability, T/C [18]: 49.8% | viability, T/C [19]: 104% | viability, T/C [20]: 95.8% | viability, T/C [21]: 95.8% | viability, T/C [22]: 109% | viability, T/C [23]: 79.8% | viability, T/C [24]: 45% | viability, T/C [25]: 88.8% | viability, T/C [26]: 95.8% | viability, T/C [27]: 95.1% | viability, T/C [28]: 81.4% | viability, T/C [29]: 69.5% | viability, T/C [30]: 34%
